Assay results reported in ChEMBL document CHEMBL3885881, “DrugMatrix”.

Organism: Rattus norvegicus
Type: toxicity, organism-based, Sprague-Dawley
Conditions: in vivo, ip, 24 h, route intraperitoneal, time 1 day, vehicle 100 % SALINE; for ABSOLUTE EOSINOPHIL / ABSOLUTE LYMPHOCYTE / ABSOLUTE MONOCYTE / ABSOLUTE SEGMENTED NEUTROPHIL / BASOPHIL / EOSINOPHIL / ERYTHROCYTE COUNT / HEMATOCRIT / HEMOGLOBIN / LEUKOCYTE COUNT / LYMPHOCYTE / MEAN CORPUSCULAR HEMOGLOBIN / MEAN CORPUSCULAR HEMOGLOBIN CONCENTRATION / MEAN CORPUSCULAR VOLUME / MONOCYTE / NEUTROPHIL / NUCLEATED RED BLOOD CELLS / PLATELET COUNT: tissue Blood; for ALANINE AMINOTRANSFERASE / ALKALINE PHOSPHATASE / ASPARTATE AMINOTRANSFERASE / BLOOD UREA NITROGEN / CARBON DIOXIDE / CHLORIDE / CHOLESTEROL / CREATININE / GLUCOSE / LACTATE DEHYDROGENASE / LIPASE / PHOSPHORUS / POTASSIUM / SODIUM / TOTAL BILIRUBIN / TOTAL PROTEIN / URIC ACID: tissue Plasma
[1] = 0 mg/kg, vehicle control, dose level Control

Description: DrugMatrix - Regimen: Single

SMILES: CC[C@H]1CN2CCc3cc(OC)c(OC)cc3[C@@H]2C[C@@H]1C[C@H]1NCCc2cc(OC)c(OC)cc21 [EMETINE]
- ABSOLUTE EOSINOPHIL [1]: 77.5 CELLS/uL
- ABSOLUTE LYMPHOCYTE [1]: 12568.83 CELLS/uL
- ABSOLUTE MONOCYTE [1]: 704.67 CELLS/uL
- ABSOLUTE SEGMENTED NEUTROPHIL [1]: 2365.67 CELLS/uL
- BASOPHIL [1]: 0%
- EOSINOPHIL [1]: 0.5%
- ERYTHROCYTE COUNT [1]: 5.83 x10E6/uL
- HEMATOCRIT [1]: 36.08%
- HEMOGLOBIN [1]: 13.22 G/DL
- LEUKOCYTE COUNT [1]: 15.72 x10E3/uL
- LYMPHOCYTE [1]: 80%
- MEAN CORPUSCULAR HEMOGLOBIN [1]: 22.68 pg
- MEAN CORPUSCULAR HEMOGLOBIN CONCENTRATION [1]: 36.63 G/DL
- MEAN CORPUSCULAR VOLUME [1]: 61.88 fL
- MONOCYTE [1]: 4.5%
- NEUTROPHIL [1]: 15%
- NUCLEATED RED BLOOD CELLS [1]: 0 /100WBC
- PLATELET COUNT [1]: 1020.5 x10E3/uL
- ALANINE AMINOTRANSFERASE [1]: 43.33 u/L
- ALKALINE PHOSPHATASE [1]: 368 u/L
- ASPARTATE AMINOTRANSFERASE [1]: 93 u/L
- BLOOD UREA NITROGEN [1]: 12.33 mg/dL
- CARBON DIOXIDE [1]: 27.17 mmol/L
- CHLORIDE [1]: 99.5 MEQ/L
- CHOLESTEROL [1]: 65.67 mg/dL
- CREATININE [1]: 0.23 mg/dL
- GLUCOSE [1]: 181.67 mg/dL
- LACTATE DEHYDROGENASE [1]: 380.17 u/L
- LIPASE [1]: 9.33 u/L
- PHOSPHORUS [1]: 13.1 mg/dL
- POTASSIUM [1]: 6.28 MEQ/L
- SODIUM [1]: 143.03 MEQ/L
- TOTAL BILIRUBIN [1]: 0.18 mg/dL
- TOTAL PROTEIN [1]: 6.12 G/DL
- URIC ACID [1]: 2.47 mg/dL
- ABSOLUTE EOSINOPHIL (1 mg/kg, dose level High): 92 CELLS/uL
- ABSOLUTE LYMPHOCYTE (1 mg/kg, dose level High): 11430 CELLS/uL
- ABSOLUTE MONOCYTE (1 mg/kg, dose level High): 510 CELLS/uL
- ABSOLUTE SEGMENTED NEUTROPHIL (1 mg/kg, dose level High): 1901.33 CELLS/uL
- BASOPHIL (1 mg/kg, dose level High): 0%
- EOSINOPHIL (1 mg/kg, dose level High): 0.67%
- ERYTHROCYTE COUNT (1 mg/kg, dose level High): 5.8 x10E6/uL
- HEMATOCRIT (1 mg/kg, dose level High): 35.23%
- HEMOGLOBIN (1 mg/kg, dose level High): 12.63 G/DL
- LEUKOCYTE COUNT (1 mg/kg, dose level High): 13.93 x10E3/uL
- LYMPHOCYTE (1 mg/kg, dose level High): 82%
- MEAN CORPUSCULAR HEMOGLOBIN (1 mg/kg, dose level High): 21.77 pg
- MEAN CORPUSCULAR HEMOGLOBIN CONCENTRATION (1 mg/kg, dose level High): 35.87 G/DL
- MEAN CORPUSCULAR VOLUME (1 mg/kg, dose level High): 60.83 fL
- MONOCYTE (1 mg/kg, dose level High): 3.67%
- NEUTROPHIL (1 mg/kg, dose level High): 13.67%
- NUCLEATED RED BLOOD CELLS (1 mg/kg, dose level High): 0 /100WBC
- PLATELET COUNT (1 mg/kg, dose level High): 1110.67 x10E3/uL
- ALANINE AMINOTRANSFERASE (1 mg/kg, dose level High): 45.67 u/L
- ALKALINE PHOSPHATASE (1 mg/kg, dose level High): 344 u/L
- ASPARTATE AMINOTRANSFERASE (1 mg/kg, dose level High): 124 u/L
- BLOOD UREA NITROGEN (1 mg/kg, dose level High): 13.33 mg/dL
- CARBON DIOXIDE (1 mg/kg, dose level High): 27 mmol/L
- CHLORIDE (1 mg/kg, dose level High): 100 MEQ/L
- CHOLESTEROL (1 mg/kg, dose level High): 66.67 mg/dL
- CREATININE (1 mg/kg, dose level High): 0.22 mg/dL
- GLUCOSE (1 mg/kg, dose level High): 182 mg/dL
- LACTATE DEHYDROGENASE (1 mg/kg, dose level High): 467.33 u/L
- LIPASE (1 mg/kg, dose level High): 9.33 u/L
- PHOSPHORUS (1 mg/kg, dose level High): 14.17 mg/dL
- POTASSIUM (1 mg/kg, dose level High): 6.56 MEQ/L
- SODIUM (1 mg/kg, dose level High): 143.9 MEQ/L
- TOTAL BILIRUBIN (1 mg/kg, dose level High): 0.17 mg/dL
- TOTAL PROTEIN (1 mg/kg, dose level High): 6.07 G/DL
- URIC ACID (1 mg/kg, dose level High): 2.17 mg/dL
